Publication PMC9598282 (Antibiotics, 2022)
Where two headings read alike, the source gives them in different places. Blank lines part the entries; values can stand above or below the compound they belong to.

Assays:
P. aeruginosa 101243 = experiment: Checkerboard assay; assay type: cell-based, Pseudomonas aeruginosa; conditions: one value per checkerboard plate
Protocol: (§1) The adjuvant properties of the guanidinylated polymyxins were evaluated using the checkerboard assay as previously described. The bacterial solution was prepared as described in the antimicrobial susceptibility assay. The antibiotic of interest and the adjuvant were serially diluted two-fold along the x- and y-axis on a 96-well plate, respectively, resulting in varying concentrations of both agents in each well. Equal volumes of bacterial solution were added to the designated wells. The well consisting of bacterial solution served as the positive control, while the wells containing only media served as the negative control. The plate was then incubated at 37 °C for 18 h. After incubation, an Emax Plus microplate reader (Molecular Devices, Union City, CA, USA) was used to measure the OD at a wavelength of 590 nm to confirm the turbidity. The fractional inhibitory concentration (FIC) index was then determined to establish the relationship between the antibiotic and adjuvant. The FIC index corresponds to the sum of the FICs of the antibiotic and adjuvant. The FIC of each agent is calculated by dividing its MIC when it is used in combination by its MIC when used alone. FIC indices ≤0.5, 0.5 < x ≤ 4 and >4 indicate synergy, additivity and antagonism, respectively.

[1] = test system: P. aeruginosa P264-104354; experiment: Checkerboard assay; assay type: cell-based, Pseudomonas aeruginosa; conditions: Pseudomonas aeruginosa, P264104354, agent alone, one value per checkerboard plate
Protocol: as §1

[2] = test system: P. aeruginosa P262-101856; experiment: Checkerboard assay; assay type: cell-based, Pseudomonas aeruginosa; conditions: Pseudomonas aeruginosa, P262101856, agent alone, one value per checkerboard plate
Protocol: as §1

P. aeruginosa P259-96918 = experiment: Checkerboard assay; assay type: cell-based, Pseudomonas aeruginosa; conditions: Pseudomonas aeruginosa, P25996918; agent alone, one value per checkerboard plate
Protocol: as §1

E. coli 107115 = experiment: microbe, parasite or virus in culture; assay type: cell-based, Escherichia coli; conditions: one value per checkerboard plate
Protocol: as §1

K. pneumoniae 113254 = experiment: Checkerboard assay; assay type: cell-based, Klebsiella pneumoniae; conditions: one value per checkerboard plate
Protocol: as §1

K. pneumoniae 113250 = experiment: Checkerboard assay; assay type: cell-based, Klebsiella pneumoniae; conditions: one value per checkerboard plate
Protocol: as §1

E. coli 94474 = experiment: Checkerboard assay; assay type: cell-based, Escherichia coli; conditions: one value per checkerboard plate
Protocol: as §1

E. coli 94393 = experiment: Checkerboard assay; assay type: cell-based, Escherichia coli; conditions: one value per checkerboard plate
Protocol: as §1

P. aeruginosa 114228 = experiment: microbe, parasite or virus in culture; assay type: cell-based, Pseudomonas aeruginosa; conditions: Pseudomonas aeruginosa, 114228, agent alone, one value per checkerboard plate
Protocol: as §1

P. aeruginosa PAO1 = experiment: microbe, parasite or virus in culture; assay type: cell-based, Pseudomonas aeruginosa; conditions: for MIC: Pseudomonas aeruginosa, PAO1, 18 h, read-out: MIC alone
Protocol: as §1

E. cloacae 121187 = experiment: microbe, parasite or virus in culture; assay type: cell-based, Enterobacter cloacae; conditions: one value per checkerboard plate
Protocol: as §1

E. coli ATCC 25922 = experiment: microbe, parasite or virus in culture; assay type: cell-based, Escherichia coli; parameters: key to FIC index antibiotic + GCol / FIC index antibiotic + GPMB: sum of FICs; ≤0.5 synergy, 0.5–4 additivity, >4 antagonism; conditions: for MIC: Escherichia coli, ATCC25922, 18 h, read-out: MIC alone
Protocol: as §1

E. cloacae 118564 = experiment: Checkerboard assay; assay type: cell-based, Enterobacter cloacae; conditions: Enterobacter cloacae, 118564; agent alone, one value per checkerboard plate
Protocol: as §1

A. baumannii AB027 = experiment: microbe, parasite or virus in culture; assay type: cell-based, Acinetobacter baumannii; conditions: one value per checkerboard plate
Protocol: as §1

A. baumannii 92247 = experiment: microbe, parasite or virus in culture; assay type: cell-based, Acinetobacter baumannii; conditions: one value per checkerboard plate
Protocol: as §1

A. baumannii ATCC 17978 = experiment: microbe, parasite or virus in culture; assay type: cell-based, Acinetobacter baumannii; conditions: for MIC: Acinetobacter baumannii, ATCC17978, 18 h, read-out: MIC alone
Protocol: as §1

A. baumannii 110193 = experiment: microbe, parasite or virus in culture; assay type: cell-based, Acinetobacter baumannii; conditions: one value per checkerboard plate
Protocol: as §1

A. baumannii AB031 = experiment: Checkerboard assay; assay type: cell-based, Acinetobacter baumannii; conditions: one value per checkerboard plate
Protocol: as §1

P. aeruginosa PA 107092 = experiment: Time-kill assay; assay type: cell-based, Pseudomonas aeruginosa; conditions: ceftazidime 8 μg/mL + GCol 2 μM or avibactam 8 μM
Protocol: To study the time-dependent killing effects of the drug combinations, the time-kill kinetics were assessed. The time-kill assay was performed following the 8 μM (2 μg/mL) concentration of avibactam used in the checkerboard assay. […] This concentration also corresponds to the susceptibility breakpoint of both β-lactams.
For the preparation of the bacterial solution, an overnight grown culture was diluted in 0.85% saline solution and adjusted to 0.5 McFarland turbidity. […] The culture tubes were incubated at 37 °C, shaking at 250 rpm. At the appointed time intervals, a 100-μL aliquot was taken from each tube, serially diluted in phosphate-buffered saline (PBS) and plated on LB agar plates. The plates were incubated at 37 °C, and bacterial colonies were counted after 18 h. The bactericidal or bacteriostatic activity is determined based on the decrease in CFU over the time period. Bactericidal activity corresponds to ≥3 log10 reduction in CFU/mL, while bacteriostatic activity corresponds to <3 log10 reduction in CFU/mL.

[3] = agent alone, one value per checkerboard plate

MIC (P. aeruginosa 101243; Pseudomonas aeruginosa, 101243, agent alone): 2 µg/mL
MIC alone (P. aeruginosa 101243; agent alone): 4 µg/mL
MIC [1]: 16 µg/mL
MIC [2]: 512 µg/mL
MIC (P. aeruginosa P259-96918): 16 µg/mL
MIC (E. coli 107115; Escherichia coli, 107115, agent alone): 32 µg/mL
MIC alone (E. coli 107115; agent alone): 16 µg/mL
MIC (K. pneumoniae 113254; Klebsiella pneumoniae, 113254, agent alone): 8 µg/mL
MIC alone (K. pneumoniae 113254; agent alone): 16 µg/mL
MIC (K. pneumoniae 113250; Klebsiella pneumoniae, 113250, agent alone): 16 µg/mL
MIC alone (K. pneumoniae 113250; agent alone): 32 µg/mL
MIC (E. coli 94474; Escherichia coli, 94474, agent alone): 8 µg/mL
MIC alone (E. coli 94474; agent alone): 4 µg/mL
MIC (E. coli 94393; Escherichia coli, 94393, agent alone): 8 µg/mL
MIC alone (E. coli 94393; agent alone): 4 µg/mL
MIC (P. aeruginosa 114228): 16 µg/mL
Absolute MIC of antibiotic at 4 μg/mL GCol (P. aeruginosa PAO1): 0.0625 µg/mL
Absolute MIC of antibiotic at 4 μg/mL GPMB (P. aeruginosa PAO1): 0.03125 µg/mL
MIC (P. aeruginosa PAO1; [3]): 16 µg/mL
MIC (E. cloacae 121187; Enterobacter cloacae, 121187, agent alone): 1 µg/mL
MIC alone (E. cloacae 121187; agent alone): 2 µg/mL
Absolute MIC of antibiotic at 2 μg/mL GCol (E. coli ATCC 25922): 0.008 µg/mL
Absolute MIC of antibiotic at 2 μg/mL GPMB (E. coli ATCC 25922): 0.008 µg/mL
MIC (E. coli ATCC 25922; [3]): 2 µg/mL
MIC (E. cloacae 118564): 8 µg/mL
MIC (A. baumannii AB027; Acinetobacter baumannii, AB027, agent alone): 2 µg/mL
MIC alone (A. baumannii AB027; agent alone): 1 µg/mL
MIC (A. baumannii 92247; Acinetobacter baumannii, 92247, agent alone): 1 µg/mL
MIC alone (A. baumannii 92247; agent alone): 0.5 µg/mL
Absolute MIC of antibiotic at 2 μg/mL GCol (A. baumannii ATCC 17978): 0.0625 µg/mL
Absolute MIC of antibiotic at 2 μg/mL GPMB (A. baumannii ATCC 17978): 0.004 µg/mL
MIC (A. baumannii ATCC 17978; [3]): 2 µg/mL
MIC (A. baumannii 110193; Acinetobacter baumannii, 110193, agent alone): 2 µg/mL
MIC alone (A. baumannii 110193; agent alone): 1 µg/mL
MIC (A. baumannii AB031; Acinetobacter baumannii, AB031, agent alone): 2 µg/mL
MIC alone (A. baumannii AB031; agent alone): 1 µg/mL
Compound: CO[C@H]1/C=C/O[C@@]2(C)Oc3c(C)c(O)c4c(O)c(c(/C=N/N5CCN(C)CC5)c(O)c4c3C2=O)NC(=O)/C(C)=C\C=C\[C@H](C)[C@H](O)[C@@H](C)[C@@H](O)[C@@H](C)[C@H](OC(C)=O)[C@@H]1C [Rifampicin]
Fold-potentiation of antibiotic (P. aeruginosa PAO1; at 4 μg/mL GCol): 256
Fold-potentiation of antibiotic (P. aeruginosa PAO1; at 4 μg/mL GPMB): 512
FIC index antibiotic + GCol (E. coli ATCC 25922): 0.023
FIC index antibiotic + GPMB (E. coli ATCC 25922): 0.07
Fold-potentiation of antibiotic (E. coli ATCC 25922; at 2 μg/mL GCol): 256
Fold-potentiation of antibiotic (E. coli ATCC 25922; at 2 μg/mL GPMB): 256
FIC index antibiotic + GPMB (A. baumannii ATCC 17978): 0.066
Fold-potentiation of antibiotic (A. baumannii ATCC 17978; at 2 μg/mL GCol): 32
Fold-potentiation of antibiotic (A. baumannii ATCC 17978; at 2 μg/mL GPMB): 512

Compound: CN[C@H](CC(C)C)C(=O)N[C@H]1C(=O)N[C@@H](CC(N)=O)C(=O)N[C@H]2C(=O)N[C@H]3C(=O)N[C@H](C(=O)N[C@H](C(=O)O)c4cc(O)cc(O)c4-c4cc3ccc4O)[C@H](O)c3ccc(c(Cl)c3)Oc3cc2cc(c3O[C@@H]2O[C@H](CO)[C@@H](O)[C@H](O)[C@H]2O[C@H]2C[C@](C)(N)[C@H](O)[C@H](C)O2)Oc2ccc(cc2Cl)[C@H]1O [Vancomycin]
Absolute MIC of antibiotic at 4 μg/mL GCol (P. aeruginosa PAO1): 8 µg/mL
Absolute MIC of antibiotic at 4 μg/mL GPMB (P. aeruginosa PAO1): 2 µg/mL
MIC (P. aeruginosa PAO1): 256 µg/mL
Fold-potentiation of antibiotic (P. aeruginosa PAO1; at 4 μg/mL GCol): 32
Fold-potentiation of antibiotic (P. aeruginosa PAO1; at 4 μg/mL GPMB): 128
Absolute MIC of antibiotic at 2 μg/mL GCol (E. coli ATCC 25922): 16 µg/mL
Absolute MIC of antibiotic at 2 μg/mL GPMB (E. coli ATCC 25922): 8 µg/mL
FIC index antibiotic + GCol (E. coli ATCC 25922): 0.25
FIC index antibiotic + GPMB (E. coli ATCC 25922): 0.313
MIC (E. coli ATCC 25922): 128 µg/mL
Fold-potentiation of antibiotic (E. coli ATCC 25922; at 2 μg/mL GCol): 8
Fold-potentiation of antibiotic (E. coli ATCC 25922; at 2 μg/mL GPMB): 16
Absolute MIC of antibiotic at 2 μg/mL GCol (A. baumannii ATCC 17978): 64 µg/mL
Absolute MIC of antibiotic at 2 μg/mL GPMB (A. baumannii ATCC 17978): 16 µg/mL
FIC index antibiotic + GPMB (A. baumannii ATCC 17978): 0.188
MIC (A. baumannii ATCC 17978): 128 µg/mL
Fold-potentiation of antibiotic (A. baumannii ATCC 17978; at 2 μg/mL GCol): 2
Fold-potentiation of antibiotic (A. baumannii ATCC 17978; at 2 μg/mL GPMB): 8

Compound: NC(=O)[C@@H]1CC[C@@H]2CN1C(=O)N2OS(=O)(=O)O [avibactam]
time-kill effect of dual therapy with ceftazidime (P. aeruginosa PA 107092): bacteriostatic effect
